Test results taken from patent US11279735B2, “Cyclic peptide antibiotics” (priority 2017, dated 2022).
Values after ≈ are worked out from the molar mass of the structure shown. *1 amine or outer side, *2 acyl side, *3 side chain or, on linkers, in order; H or OH if unused. Where a SMILES comes first, the peptide text is derived from it. [ ]: non-standard residue; d: D form. The star is where a group is joined. X6 = CCCCCC[C@@H](OC[C@@H](CC)N[*:1])[C@@H](C)C(=O)[*:2]; X2 = CCCCCC[C@@H](OC[C@@H](C)N[*:1])[C@@H](C)C(=O)[*:2]; X14 = CCCCCC[C@@H](OCCN[*:1])[C@@H](C)C(=O)[*:2]; Cyclobutyl(trans-3-NH2) = N[C@H]1C[C@H](*)C1; Gly(cHept) = N[C@H](C(=O)O)C1CCCCCC1; aThr = C[C@H](O)[C@H](N)C(=O)O; NMeL = CN[C@@H](CC(C)C)C(=O)O; Chg = N[C@H](C(=O)O)C1CCCCC1; NMeNva = CCC[C@H](NC)C(=O)O; Dap = NC[C@H](N)C(=O)O; X15 = OC[C@@H](O)C*

Each compound was assayed on Escherichia coli (E. coli) strain CFT073 ATCC 700928. Conditions: ATCC 700928, 22 h.
Format: cell-based
Outline: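 MICs were read after 22 h at 35 °C, with bacteria added to a final OD600 of 0.0005. Compounds were serially diluted 2-fold over ten concentrations from a top of 64, 4, 0.5 or 0.13 μg/mL (protocols 1–4). Medium was cation-adjusted Mueller Hinton II broth plus 0.002% Tween-80, following CLSI M07-A8.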

Going from CCCCCCC1OC(=O)CNC(=O)[C@H](CNC(=O)Cn2ccnc2)NC(=O)[C@H](CN)NC(=O)[C@H](C2CCCCC2)NC(=O)[C@H](CC(C)C)N(C)C(=O)[C@@H]1C (stereo in doubt) [Example 160, N-[[(6S,9S,12S,15S,18R,19R)-9-(Aminomethyl)-12-cyclohexyl-19-hexyl-15-isobutyl-16,18-dimethyl-2,5,8,11,14,17-hexaoxo-1-oxa-4,7,10,13,16-pentazacyclononadec-6-yl]methyl]-2-imidazol-1-yl-acetamide] to CCCCCC[C@@H]1OC(=O)CNC(=O)[C@H](CNC(=O)C2CCNCC2)NC(=O)[C@H](CN)NC(=O)[C@H](C2CCCCC2)NC(=O)[C@H](CC(C)C)N(C)C(=O)[C@@H]1C (stereo in doubt) [Example 155], the MIC falls from 71 µM (≈ 55 µg/mL) to 18 µM (≈ 14 µg/mL) (3.9-fold).

First: CCC[C@H]1C(=O)N[C@@H](C2CCCCCC2)C(=O)N[C@@H](CN)C(=O)N[C@@H](CO[C@H]2C[C@H](N)C2)C(=O)NCC(=O)O[C@H](CC2CC3CCC2C3)[C@@H](C)C(=O)N1C (stereo partly drawn) [Example 141, (6S,9S,12S,15S,18R,19R)-6-[(3-aminocyclobutoxy)methyl]-9-(aminomethyl)-12-cycloheptyl-16,18-dimethyl-19-(norbornan-2-ylmethyl)-15-propyl-1-oxa-4,7,10,13,16-pentazacyclononadecane-2,5,8,11,14,17-hexone]
Second: CCCCCC[C@H]1OCCNC(=O)[C@H](CO[C@H]2C[C@H](N)C2)NC(=O)[C@H](CN)NC(=O)[C@H](C2CCCCCC2)NC(=O)[C@H](CCC)N(C)C(=O)[C@@H]1C [Example 80, (6S,9S,12S,15S,18R,19R)-6-(((1r,3S)-3-Aminocyclobutoxy)methyl)-9-(aminomethyl)-12-cycloheptyl-19-hexyl-16,18-dimethyl-15-propyl-1-oxa-4,7,10,13,16-pentaazacyclononadecane-5,8,11,14,17-pentaone] (cyclo([Dap]S(Cyclobutyl(trans-3-NH2))[X14][NMeNva][Gly(cHept)]))
The MIC of the first is 5.5-fold lower: 2.2 µM (≈ 1.67 µg/mL) for the first, 12 µM (≈ 8.66 µg/mL) for the second.

CC[C@@H](C)[C@@H]1NC(=O)[C@H](CC(C)C)N(C)C(=O)[C@H](C)[C@@H](CCC23CC4CC(CC(C4)C2)C3)OC(=O)CNC(=O)[C@H](CO)NC(=O)[C@H](CN)NC1=O [Example 94, (6S,9S,12S,15S,18R,19R)-19-[2-(1-adamantyl)ethyl]-9-(aminomethyl)-6-(hydroxymethyl)-15-isobutyl-16,18-dimethyl-12-[(1R)-1-methylpropyl]-1-oxa-4,7,10,13,16-pentazacyclononadecane-2,5,8,11,14,17-hexone] and CCCCCCCCCC[C@H]1OC(=O)CNC(=O)[C@H]([C@H](C)O)NC(=O)[C@H](CN)NC(=O)[C@H]([C@H](C)CC)NC(=O)[C@H](CC(C)C)N(C)C(=O)[C@@H]1C [Example 1, (6S,9S,12S,15S,18R,19R)-9-(aminomethyl)-12-((R)-sec-butyl)-19-decyl-6-((S)-1-hydroxyethyl)-15-isobutyl-16,18-dimethyl-1-oxa-4,7,10,13,16-pentaazacyclononadecane-2,5,8,11,14,17-hexaone] are within 1.5-fold of each other in MIC: 4.4 µM (≈ 3.16 µg/mL) for the first, 3.1 µM (≈ 2.2 µg/mL) for the second.

CCCCCC[C@H]1OC(=O)CNC(=O)[C@H]([C@H](C)O)NC(=O)[C@H]([C@H](C)O)NC(=O)[C@H]([C@H](C)CC)NC(=O)[C@H](CC(C)C)N(C)C(=O)[C@@H]1C [Example 100, (6S,9S,12S,15S,18R,19R)-19-hexyl-15-isobutyl-16,18-dimethyl-6,9-bis[(1S)-1-hydroxyethyl]-12-[(1R)-1-methylpropyl]-1-oxa-4,7,10,13,16-pentazacyclononadecane-2,5,8,11,14,17-hexone] and CCCCCCCCCC[C@H]1OC(=O)CNC(=O)[C@H](C2CCNCC2)NC(=O)[C@H](CO)NC(=O)[C@H]([C@@H](C)CC)NC(=O)[C@H](CC(C)C)N(C)C(=O)[C@@H]1C [Example 38, (6S,9S,12S,15S,18R,19R)-19-decyl-9-(hydroxymethyl)-15-isobutyl-16,18-dimethyl-12-[(1S)-1-methylpropyl]-6-(4-piperidyl)-1-oxa-4,7,10,13,16-pentazacyclononadecane-2,5,8,11,14,17-hexone] are within 1.5-fold of each other in MIC: 35 µM (≈ 23.4 µg/mL) for the first, 50 µM (≈ 37.6 µg/mL) for the second.

CCCCCC[C@H]1OC[C@@H](C)NC(=O)[C@H]([C@H](C)O)NC(=O)[C@H](CN)NC(=O)[C@H](C2CCCCC2)NC(=O)[C@H](CC(C)C)N(C)C(=O)[C@@H]1C [Example 57, (3R,6S,9S,12S,15S,18R,19R)-9-(Aminomethyl)-12-cyclohexyl-19-hexyl-6-((S)-1-hydroxyethyl)-15-isobutyl-3,16,18-trimethyl-1-oxa-4,7,10,13,16-pentaazacyclononadecane-5,8,11,14,17-pentaone] (cyclo([Chg][Dap][aThr][X2][NMeL])) and CCCCCC[C@H]1OC[C@@H](CC)NC(=O)[C@H]([C@H](C)O)NC(=O)[C@H](CN)NC(=O)[C@H](C2CCCCC2)NC(=O)[C@H](CC(C)C)N(C)C(=O)[C@@H]1C [Example 144, (3R,6S,9S,12S,15S,18R,19R)-9-(aminomethyl)-12-cyclohexyl-3-ethyl-19-hexyl-15-isobutyl-16,18-dimethyl-6-[(1S)-1-hydroxyethyl]-1-oxa-4,7,10,13,16-pentazacyclononadecane-5,8,11,14,17-pentone] (cyclo([Chg][Dap][aThr][X6][NMeL])) are within 1.5-fold of each other in MIC: 2.9 µM (≈ 1.97 µg/mL) for the first, 2.2 µM (≈ 1.53 µg/mL) for the second.

Going from CCCCCC[C@H]1OC(=O)CNC(=O)[C@H]([C@H](C)O)NC(=O)[C@H](CN)NC(=O)[C@H](C2CCCCC2)NC(=O)[C@H](CC(C)C)N(C)C(=O)[C@@H]1Cc1ccc(C)cc1 [Example 96, (6S,9S,12S,15S,18R,19R)-9-(aminomethyl)-12-cyclohexyl-19-hexyl-15-isobutyl-16-methyl-18-(p-tolylmethyl)-6-[(1S)-1-hydroxyethyl]-1-oxa-4,7,10,13,16-pentazacyclononadecane-2,5,8,11,14,17-hexone] to CCCC[C@H]1OC(=O)CNC(=O)[C@H]([C@H](C)O)NC(=O)[C@H](CN)NC(=O)[C@H](C2CCCCC2)NC(=O)[C@H](CC(C)C)N(C)C(=O)[C@@H]1CCCC [Example 66, (6S,9S,12S,15S,18R,19R)-9-(Aminomethyl)-18,19-dibutyl-12-cyclohexyl-6-((S)-1-hydroxyethyl)-15-isobutyl-16-methyl-1-oxa-4,7,10,13,16-pentaazacyclononadecane-2,5,8,11,14,17-hexaone], the MIC falls from 5.3 µM (≈ 4.09 µg/mL) to 1.3 µM (≈ 0.903 µg/mL) (4.1-fold).

Compared with CCCCCC[C@H]1OC[C@@H](C)NC(=O)[C@H](COC[C@H](O)CO)NC(=O)[C@H](CN)NC(=O)[C@H](C2CCCCC2)NC(=O)[C@H](CC(C)C)N(C)C(=O)[C@@H]1C [Example 136, (3R,6S,9S,12S,15S,18R,19R)-9-(aminomethyl)-12-cyclohexyl-19-hexyl-15-isobutyl-3,16,18-trimethyl-6-[[(2R)-2,3-dihydroxypropoxy]methyl]-1-oxa-4,7,10,13,16-pentazacyclononadecane-5,8,11,14,17-pentone] (cyclo([Chg][Dap]S(X15)[X2][NMeL])), CCCCCC[C@H]1OC[C@@H](C)NC(=O)[C@H](COc2cccc(CN)c2)NC(=O)[C@H](CN)NC(=O)[C@H](C2CCCCC2)NC(=O)[C@H](CC(C)C)N(C)C(=O)[C@@H]1C [Example 167, (3R,6S,9S,12S,15S,18R,19R)-9-(Aminomethyl)-6-((3-(aminomethyl)phenoxy)methyl)-12-cyclohexyl-19-hexyl-15-isobutyl-3,16,18-trimethyl-1-oxa-4,7,10,13,16-pentaazacyclononadecane-5,8,11,14,17-pentaone] is 5.5-fold lower in MIC: 8.8 µM (≈ 6.52 µg/mL) for the first, 1.6 µM (≈ 1.24 µg/mL) for the second.

Work on CCCCCCCCCC[C@H]1OC(=O)CNC(=O)[C@H]([C@H](C)O)NC(=O)[C@H](CN)NC(=O)[C@H](C2CCCC2)NC(=O)[C@H](CC(C)C)N(C)C(=O)[C@@H]1C [Example 45, (6S,9S,12S,15S,18R,19R)-9-(aminomethyl)-12-cyclopentyl-19-decyl-6-[(1S)-1-hydroxyethyl]-15-isobutyl-16,18-dimethyl-1-oxa-4,7,10,13,16-pentazacyclononadecane-2,5,8,11,14,17-hexone] yielded an MIC of 25 µM (≈ 18.1 µg/mL).
